Measured values taken from PubChem BioAssay AID743160 (Sanford-Burnham Center for Chemical Genomics, 2013).
Activity calls are given as the source filed them. How the calls were made is not given here.

Each compound was assayed on H9c2 cells, DAPI nuclear count (cytotoxicity), overnight (assay: H9c2 cardiomyoblast cytotoxicity by nuclear count, SAR follow-up, cytotoxicity control for triacylglycerol accumulation inhibitor project, cell-based, DAPI fluorescence (AID 743160)).

Row | Compound | IC50
1 | COCCN1Cc2cccc(C(=O)Nc3cccc(-c4nc5ccccc5[nH]4)c3)c2C1=O | > 50 µM (inactive)
2 | COCCN1Cc2cccc(C(=O)Nc3cccc(-c4nc5ccc(Cl)cc5[nH]4)c3)c2C1=O | > 50 µM (inactive)
3 | COCCN1Cc2cccc(C(=O)Nc3cccc(C(=O)Nc4ccccc4OC)c3)c2C1=O | > 50 µM (inactive)
4 | Cc1ccc(Nc2nc(OC(C(F)(F)F)C(F)(F)F)nc(N3CCOCC3)n2)cc1 | > 50 µM (inactive)
5 | CSCCCN1Cc2cccc(C(=O)Nc3cccc(-c4nc5ccccc5[nH]4)c3)c2C1=O | > 50 µM (inactive)
6 | Cc1ccccc1NC(=O)CSc1nc(Nc2ccccc2)nc(N2CCOCC2)n1 | > 50 µM (inactive)
7 | COCCN1Cc2cccc(C(=O)NCc3cccc(N(C)C)c3)c2C1=O | > 50 µM (inactive)
8 | O=C(Nc1cccc(-c2nc3ccccc3[nH]2)c1)c1cccc2c1C(=O)N(CCN1CCOCC1)C2 | > 50 µM (inactive)
9 | COCCN1Cc2cccc(C(=O)Nc3nc4ccccc4n3C)c2C1=O | > 50 µM (inactive)
10 | COCCN1Cc2cccc(C(=O)Nc3cccc(-c4nc5ccc(C)cc5[nH]4)c3)c2C1=O | > 50 µM (inactive)
11 | COc1cc2c(cc1OC)C(C)N(C(=O)c1cc3c(C)cc(C)cc3[nH]1)CC2 (stereo unspecified) | > 50 µM (inactive)
12 | CCn1c(SCC(=O)Nc2nc(-c3ccc(C)cc3)cs2)nnc1-c1ccccc1O | 8.1 µM (inactive)
13 | O=[N+]([O-])c1ccc(Nc2nc(NC3CCCCC3)nc(N3CCCC3)n2)cc1 | 11 µM (inactive)
14 | CCOC(=O)c1cccc(NC(=O)c2cccc3c2C(=O)N(CCOC)C3)c1 | > 50 µM (inactive)
15 | CCC(C)(C)NC(=O)C(c1ccc(OC)cc1)N(Cc1cccs1)C(=O)CCC(=O)Nc1cc(C)on1 (stereo unspecified) | > 50 µM (inactive)
16 | COc1ccc(CCN2Cc3cccc(C(=O)Nc4cccc(-c5nc6ccccc6[nH]5)c4)c3C2=O)cc1OC | > 50 µM (inactive)
17 | Cc1ccc(-c2csc(NC(=O)CSc3nc4ccccc4c(=O)n3CCCN(C)C)n2)cc1 | > 50 µM (inactive)
18 | O=C(Nc1cccc(-c2nc3ccccc3[nH]2)c1)c1cccc2c1C(=O)N(CC1CC1)C2 | > 50 µM (inactive)
19 | O=C(CCC(=O)N1CCOc2ccc(Cl)cc21)NCCCN1CCC(Cc2ccccc2)CC1 | 13.5 µM (inactive)
20 | CCCCSc1nc2ccc(Nc3nc(N4CCOCC4)nc(N4CCOCC4)n3)cc2s1 | > 50 µM (inactive)
21 | COc1cc(NC(=O)c2cc([N+](=O)[O-])ccc2NC(=O)CN2CCN(c3ccccn3)CC2)cc(OC)c1 | > 50 µM (inactive)
22 | CCOc1ccccc1NC(=O)c1cccc(NC(=O)c2ccco2)c1 | 23.2 µM (inactive)
23 | CN(C)CCCn1c(SCC(=O)Nc2nc(-c3cccc(Br)c3)cs2)nc2ccccc2c1=O | 27.1 µM (inactive)
24 | CCOc1ccc(NC(=O)CN(C)C(=O)c2cc(-c3ccc(OC)cc3)nc3ccccc23)cc1OCC | > 50 µM (inactive)
25 | COCCN1Cc2cccc(C(=O)Nc3cccc(-c4nc5ccc(F)cc5[nH]4)c3)c2C1=O | > 50 µM (inactive)
26 | Cc1ccc(-c2nc(NC(=O)c3cc(C(C)(C)C)nn3C)sc2C)cc1Cl | > 50 µM (inactive)

Row | Compound | IC50
27 | CCOCCN1Cc2cccc(C(=O)Nc3cccc(-c4nc5ccccc5[nH]4)c3)c2C1=O | > 50 µM (inactive)
28 | O=C1COc2ccc(C(=O)CSc3nc4ccccc4c(=O)n3-c3ccc(Cl)c(Cl)c3)cc2N1 | 7.69 µM (inactive)
29 | Cc1ccccc1OCCNc1cc(N2CC(C)NC(C)C2)ccc1[N+](=O)[O-] (stereo unspecified) | > 50 µM (inactive)
30 | O=C(Nc1cccc(-c2nc3ccccc3[nH]2)c1)c1cccc2c1C(=O)N(CCOc1ccccc1)C2 | > 50 µM (inactive)
31 | O=C(Nc1cccc2ncccc12)c1ccc(Cl)cc1 | > 50 µM (inactive)
32 | Cc1cc(C)c2nc(-c3ccncc3)cc(C(=O)N3CCN(Cc4ccccc4Cl)CC3)c2c1 | 23.6 µM (inactive)
33 | O=C(Nc1cccc(-c2nc3ccccc3[nH]2)c1)c1cccc2c1C(=O)N(CCc1ccccc1)C2 | > 50 µM (inactive)
34 | CCC(C)(C)NC(=O)C(c1ccc(C)cc1)N(Cc1ccco1)C(=O)CCC(=O)Nc1nccs1 (stereo unspecified) | > 50 µM (inactive)
35 | COCCN1Cc2cccc(C(=O)Nc3cccc(-c4nc5ccc(C(F)(F)F)cc5[nH]4)c3)c2C1=O | > 50 µM (inactive)
36 | CCCCN1Cc2cccc(C(=O)Nc3cccc(-c4nc5ccccc5[nH]4)c3)c2C1=O | > 50 µM (inactive)
37 | COCCn1cnc2cccc(C(=O)Nc3cccc(-c4nc5ccccc5[nH]4)c3)c2c1=O | > 50 µM (inactive)
38 | COCCN1Cc2cccc(C(=O)Nc3cccc(C(=O)Nc4ccccc4)c3)c2C1=O | > 50 µM (inactive)
39 | Cc1ccccc1NC(=O)CSc1nc2ccc(Nc3nc(N4CCOCC4)nc(N4CCOCC4)n3)cc2s1 | 40 µM (inactive)
40 | COCCN1Cc2cccc(C(=O)Nc3cccnc3)c2C1=O | > 50 µM (inactive)
41 | CCOC(=O)c1cc(-c2ccccc2)sc1NC(=O)C(C)N1C(=O)NC(C)(c2ccc(Cl)cc2)C1=O (stereo unspecified) | > 50 µM (inactive)
42 | COc1cccc(-c2cc(C(=O)Nc3ccc(N(C)C(C)=O)cc3)c3cc(Br)ccc3n2)c1 | > 50 µM (inactive)
43 | COCCN1Cc2cccc(C(=O)Nc3nc4ccccc4[nH]3)c2C1=O | > 50 µM (inactive)
44 | CCN(CC)S(=O)(=O)c1ccc(N2CCOCC2)c(NC(=O)c2[nH]c(C)c(C(C)=O)c2C)c1 | > 50 µM (inactive)
45 | Cc1cccc2c(C(=O)N3CCN(c4ccccc4)CC3)cc(-c3ccncc3)nc12 | > 50 µM (inactive)
46 | O=C(CSc1nc2ccc(Nc3nc(N4CCOCC4)nc(N4CCOCC4)n3)cc2s1)Nc1ccccc1Cl | 27.8 µM (inactive)
47 | O=C(CSc1nc2ccc(Nc3nc(N4CCOCC4)nc(N4CCOCC4)n3)cc2s1)NCc1ccco1 | > 50 µM (inactive)
48 | CCCC(=O)Nc1nc2ccc(NC(=O)c3c(F)c(F)c(OC)c(F)c3F)cc2s1 | > 50 µM (inactive)
49 | COc1ccccc1CCN1Cc2cccc(C(=O)Nc3cccc(-c4nc5ccccc5[nH]4)c3)c2C1=O | > 50 µM (inactive)
50 | COCCCN1Cc2cccc(C(=O)Nc3cccc(-c4nc5ccccc5[nH]4)c3)c2C1=O | > 50 µM (inactive)
51 | CCCC(=O)Nc1nc2ccc(NC(=O)c3ccccc3F)cc2s1 | > 50 µM (inactive)
